# Active and inactive are the calls of the source. The rule behind the calls is not given here.
# Assays:
# [1] = Tmax in ICR mouse at 5 mg/kg, iv by LC-MS/MS analysis; format: ADME, organism-based; conditions: in vivo
# Mus musculus [2] = assay: Antiinflammatory activity against MCD diet-induced NASH C57BL/6 mouse model assessed as reduction in TUNEL-positive hepatic cells at 40 mg/kg, po administered via gavage for 5 weeks by TUNEL assay; format: functional, organism-based
# Mus musculus [3] = assay: Antiinflammatory activity against DSS-induced ulcerative colitis C57BL/6 mouse assessed as reduction in massive loss of goblet cells in colon at 10 mg/kg, ip administered for 9 days and measured on day 10 by H and E staining based analysis; format: functional, organism-based; conditions: time 10.0 day
# [4] = Toxicity against female ICR mouse assessed as effect on plasma ALT level at 200 to 500 mg/kg administered via gavage for 12 days; format: organism-based; conditions: in vivo, po, 288 h, dose 200-500 mg/kg, time 12 day
# Mus musculus [5] = assay: Antiinflammatory activity against MCD diet-induced NASH C57BL/6 mouse model assessed as reduction in liver steatosis at 40 mg/kg, po administered via gavage for 5 weeks by Sirius red staining based analysis; format: functional, organism-based
# [6] = Effect on immune cell numbers in MCS diet-fed C57BL/6 mouse assessed as effect on F4/80 expression at 40 mg/kg, po administered via gavage for 5 weeks by immunofluorescence staining based analysis; format: toxicity, organism-based; conditions: in vivo, 840 h
# [7] = Cmax in ICR mouse at 5 mg/kg, iv by LC-MS/MS analysis; format: ADME, organism-based; parameters: dose 5 mg/kg, route iv; conditions: in vivo
# [8] = MRT (0 to infinity) in ICR mouse at 10 mg/kg, po by LC-MS/MS analysis; format: ADME, organism-based; conditions: in vivo
# [9] = Toxicity against male ICR mouse assessed as effect on plasma ALT level at 200 to 500 mg/kg administered via gavage for 12 days; format: organism-based; conditions: in vivo, po, 288 h, dose 200-500 mg/kg, time 12 day
# [10] = Toxicity against male ICR mouse assessed as effect on plasma AST level at 200 to 500 mg/kg administered via gavage for 12 days; format: organism-based; conditions: in vivo, po, 288 h, dose 200-500 mg/kg, time 12 day
# J774.A1 = assay: Effect on NLRP3 protein expression in mouse J774.A1 cells at 3 to 30 nM primed with LPS for 4.5 hrs followed by incubation with compound for 2.5 hrs and later stimulated with ATP for 30 mins by immunoblot analysis; format: functional, cell-based; conditions: dose 3-30 nM, time 3.0 hrs
# [11] = Toxicity against female ICR mouse assessed as effect on ratio of plasma AST to ALT level at 200 to 500 mg/kg administered via gavage for 12 days; format: organism-based; conditions: in vivo, po, 288 h, dose 200-500 mg/kg, time 12 day
# Mus musculus [12] = assay: Antiinflammatory activity against MCD diet-induced NASH C57BL/6 mouse model assessed as reduction in balloon dilatation in liver at 40 mg/kg, po administered via gavage for 5 weeks by Masson's trichrome staining based analysis; format: functional, organism-based
# [13] = molecular target: NACHT, LRR and PYD domains-containing protein 3 (Mus musculus, UniProt Q8R4B8); assay: Inhibition of NLRP3 inflammasome in mouse […] cells assessed as inhibition of LPS/ATP-induced IL-1 beta secretion primed with LPS for 4.5 hs followed by incubation with compound for 30 mins and later stimulation with ATP for 30 mins by ELISA; format: cell-based, J774.A1
# [14] = Toxicity against female ICR mouse assessed as effect on spleen weight at 200 to 500 mg/kg administered via gavage for 12 days; format: organism-based; conditions: in vivo, po, 288 h, dose 200-500 mg/kg, time 12 day
# Mus musculus [15] = assay: Antiinflammatory activity against MCD diet-induced NASH C57BL/6 mouse model assessed as reduction in liver steatosis at 40 mg/kg, po administered via gavage for 5 weeks by H and E staining based analysis; format: functional, organism-based
# [16] = Half life in ICR mouse at 5 mg/kg, iv by LC-MS/MS analysis; format: ADME, organism-based; conditions: in vivo
# Mus musculus [17] = assay: Antiinflammatory activity against MCD diet-induced NASH C57BL/6 mouse model assessed as improvement in liver morphology at 40 mg/kg, po administered via gavage for 5 weeks by Sirius red staining based analysis; format: functional, organism-based
# Mus musculus [18] = assay: Antiinflammatory activity against MCD diet-induced NASH C57BL/6 mouse model assessed as reduction in immune cell infiltration by measuring reduction in CD45-positive hepatic cells at 40 mg/kg, po administered via gavage for 5 weeks by immunofluorescence staining based analysis; format: functional, organism-based
# Mus musculus [19] = assay: Antiinflammatory activity against MCD diet-induced NASH C57BL/6 mouse model assessed as reduction in balloon dilatation in liver at 40 mg/kg, po administered via gavage for 5 weeks by Sirius red staining based analysis; format: functional, organism-based
# [20] = Toxicity against female ICR mouse assessed as effect on lung weight at 200 to 500 mg/kg administered via gavage for 12 days; format: organism-based; conditions: in vivo, po, 288 h, dose 200-500 mg/kg, time 12 day
# [21] = Drug uptake in Sprague-Dawley rat heart at 50 mg/kg, po measured for 24 hrs by LC-MS/MS analysis; format: ADME, organism-based; conditions: in vivo
# [22] = Drug uptake in Sprague-Dawley rat spleen at 50 mg/kg, po measured for 24 hrs by LC-MS/MS analysis; format: ADME, organism-based; conditions: in vivo
# [23] = Toxicity against male ICR mouse assessed as effect on spleen weight at 200 to 500 mg/kg administered via gavage for 12 days; format: organism-based; conditions: in vivo, po, 288 h, dose 200-500 mg/kg, time 12 day
# [24] = Toxicity against female ICR mouse assessed as effect on plasma AST level at 200 to 500 mg/kg administered via gavage for 12 days; format: organism-based; conditions: in vivo, po, 288 h, dose 200-500 mg/kg, time 12 day
# [25] = Drug uptake in Sprague-Dawley rat kidney at 50 mg/kg, po measured for 24 hrs by LC-MS/MS analysis; format: ADME, organism-based; conditions: in vivo
# [26] = Tmax in ICR mouse at 10 mg/kg, po by LC-MS/MS analysis; format: ADME, organism-based; conditions: in vivo
# [27] = molecular target: NLR family CARD domain-containing protein 4 (Mus musculus) (UniProt Q3UP24); assay: Inhibition of NLRC4 inflammasome in mouse J774.A1 cells assessed as inhibition of caspase-1 activation at 30 nM primed with LPS for 4.5 hrs followed by incubation with compound for 24 hrs and later stimulated with flagellin for 24 hrs by immunoblot analysis; format: cell-based; conditions: time 48.0 hrs
# [28] = MRT (0 to infinity) in ICR mouse at 5 mg/kg, iv by LC-MS/MS analysis; format: ADME, organism-based; conditions: in vivo
# [29] = Toxicity against male ICR mouse assessed as effect on ratio of plasma AST to ALT level at 200 to 500 mg/kg administered via gavage for 12 days; format: organism-based; conditions: in vivo, po, 288 h, dose 200-500 mg/kg, time 12 day
# [30] = Drug uptake in Sprague-Dawley rat brain at 50 mg/kg, po measured for 24 hrs by LC-MS/MS analysis; format: ADME, organism-based; conditions: in vivo
# [31] = Effect on immune cell numbers in MCS diet-fed C57BL/6 mouse assessed as effect on CD45 expression at 40 mg/kg, po administered via gavage for 5 weeks by immunofluorescence staining based analysis; format: toxicity, organism-based; conditions: in vivo, 840 h
# [32] = Drug uptake in Sprague-Dawley rat jejunum at 50 mg/kg, po measured for 24 hrs by LC-MS/MS analysis; format: ADME, organism-based; conditions: in vivo
# NLR family CARD domain-containing protein 4 (Mus musculus), sequence (Q3UP24 whole entry, the tested form may be a part): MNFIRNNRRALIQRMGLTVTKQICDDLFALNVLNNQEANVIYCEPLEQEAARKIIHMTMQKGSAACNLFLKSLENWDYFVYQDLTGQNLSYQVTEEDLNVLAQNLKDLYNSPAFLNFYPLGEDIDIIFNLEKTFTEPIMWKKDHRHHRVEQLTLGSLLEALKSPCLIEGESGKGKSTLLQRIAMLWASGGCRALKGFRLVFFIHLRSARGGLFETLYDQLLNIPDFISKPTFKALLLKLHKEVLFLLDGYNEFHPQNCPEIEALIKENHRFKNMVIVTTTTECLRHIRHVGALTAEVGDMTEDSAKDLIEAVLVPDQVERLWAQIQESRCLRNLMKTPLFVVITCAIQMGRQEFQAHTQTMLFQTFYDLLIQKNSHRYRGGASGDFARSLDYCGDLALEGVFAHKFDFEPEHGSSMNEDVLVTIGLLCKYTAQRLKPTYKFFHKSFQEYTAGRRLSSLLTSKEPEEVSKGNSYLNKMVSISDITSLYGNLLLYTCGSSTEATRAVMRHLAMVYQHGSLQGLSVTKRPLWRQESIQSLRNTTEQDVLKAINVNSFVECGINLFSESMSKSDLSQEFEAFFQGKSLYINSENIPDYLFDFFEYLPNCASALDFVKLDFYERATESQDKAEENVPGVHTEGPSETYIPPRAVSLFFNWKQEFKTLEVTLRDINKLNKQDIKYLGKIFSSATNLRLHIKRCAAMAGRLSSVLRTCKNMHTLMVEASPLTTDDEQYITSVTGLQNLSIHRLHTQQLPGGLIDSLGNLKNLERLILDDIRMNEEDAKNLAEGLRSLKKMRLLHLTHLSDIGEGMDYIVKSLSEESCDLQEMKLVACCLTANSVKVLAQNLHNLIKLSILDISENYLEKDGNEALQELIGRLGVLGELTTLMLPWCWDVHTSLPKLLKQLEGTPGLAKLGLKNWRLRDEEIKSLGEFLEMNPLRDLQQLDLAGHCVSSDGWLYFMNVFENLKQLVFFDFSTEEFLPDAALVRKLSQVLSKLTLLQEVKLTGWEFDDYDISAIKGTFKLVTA
# NACHT, LRR and PYD domains-containing protein 3, sequence (Q8R4B8 whole entry, the tested form may be a part): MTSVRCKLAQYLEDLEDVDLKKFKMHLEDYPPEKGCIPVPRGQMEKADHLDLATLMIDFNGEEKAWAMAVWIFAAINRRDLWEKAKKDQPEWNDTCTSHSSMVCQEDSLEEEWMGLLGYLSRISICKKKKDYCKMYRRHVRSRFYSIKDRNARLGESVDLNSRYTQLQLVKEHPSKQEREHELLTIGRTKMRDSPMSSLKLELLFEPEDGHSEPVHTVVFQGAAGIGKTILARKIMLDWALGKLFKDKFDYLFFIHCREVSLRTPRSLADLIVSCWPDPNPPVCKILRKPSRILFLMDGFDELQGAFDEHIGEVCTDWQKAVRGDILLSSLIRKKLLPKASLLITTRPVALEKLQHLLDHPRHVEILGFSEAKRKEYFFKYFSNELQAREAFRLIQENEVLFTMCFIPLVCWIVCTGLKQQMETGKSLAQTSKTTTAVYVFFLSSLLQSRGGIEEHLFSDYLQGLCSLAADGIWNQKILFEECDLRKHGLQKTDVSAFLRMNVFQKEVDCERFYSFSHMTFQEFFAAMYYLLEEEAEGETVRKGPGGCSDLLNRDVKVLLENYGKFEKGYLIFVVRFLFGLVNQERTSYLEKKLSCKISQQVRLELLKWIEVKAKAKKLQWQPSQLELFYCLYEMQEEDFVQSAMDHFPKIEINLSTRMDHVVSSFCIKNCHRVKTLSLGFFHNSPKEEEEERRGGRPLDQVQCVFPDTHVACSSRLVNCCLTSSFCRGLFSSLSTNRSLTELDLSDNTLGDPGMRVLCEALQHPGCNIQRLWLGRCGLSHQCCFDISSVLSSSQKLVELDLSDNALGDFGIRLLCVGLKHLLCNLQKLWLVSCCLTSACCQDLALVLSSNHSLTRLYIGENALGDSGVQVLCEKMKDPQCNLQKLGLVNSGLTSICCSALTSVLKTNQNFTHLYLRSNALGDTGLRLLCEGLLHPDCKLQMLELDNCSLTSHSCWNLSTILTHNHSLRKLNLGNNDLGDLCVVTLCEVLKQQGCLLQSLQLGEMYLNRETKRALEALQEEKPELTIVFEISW
compound,measurement,setting,value
CN(C)Cc1ccc(S(=O)(=O)NC(=O)Nc2c3c(cc4c2CCC4)CCC3)cc1,Tmax,[1],4.98 min
same,Activity,Mus musculus [2],Active
same,Activity,Mus musculus [3],Active
same,Activity,[4],Non-Toxic
same,Activity,Mus musculus [5],Active
same,Activity,[6],Non-Toxic
same,Cmax,[7],22600 ng/mL
same,MRT inf,[8],4.79 h
same,Activity,[9],Non-Toxic
same,Activity,[10],Non-Toxic
same,Activity,J774.A1,inactive
same,Activity,[11],Non-Toxic
same,Activity,Mus musculus [12],Active
same,IC50,[13],25 nM
same,Activity,[14],Non-Toxic
same,Activity,Mus musculus [15],Active
same,half-life,[16],4.01 h
same,Activity,Mus musculus [17],Active
same,Activity,Mus musculus [18],Active
same,Activity,Mus musculus [19],Active
same,Activity,[20],Non-Toxic
same,Drug uptake,[21],Active
same,Drug uptake,[22],Active
same,Activity,[23],Non-Toxic
same,Activity,[24],Non-Toxic
same,Drug uptake,[25],Active
same,Tmax,[26],0.667 h
same,inhibition,[27],inactive
same,MRT inf,[28],5.3 h
same,Activity,[29],Non-Toxic
same,Drug uptake,[30],Active
same,Activity,[31],Non-Toxic
same,Drug uptake,[32],Active
